Read-outs that look alike come from different tables or passages of the source.
Legend:
SW 620 (colon carcinoma) [1] = details: c = 10^-4 M, cited from earlier work
From the text: Table 3 Growth inhibition effects of OGF-related peptides. | column: PG(%) ^a / SW620

[2] = test system: HeLa (cervical carcinoma); details: c = 10^-4 M, cited from earlier work
From the text: Table 3 Growth inhibition effects of OGF-related peptides. | column: PG(%) ^a / HeLa

MCF-7 (breast carcinoma) [3] = details: c = 10^-4 M, cited from earlier work
From the text: Table 3 Growth inhibition effects of OGF-related peptides. | column: PG(%) ^a / MCF-7

SW 620 (colon carcinoma) [4] = assay: Proliferation assay (MTT), SW 620 cells; format: cell-based; details: c = 10^-4 M, 72 h incubation, absorbance 570 nm, quadruplicate in three individual experiments
From the text: (§1) Peptides 10, 12–14 as well as trisulfoxide derivative 15 were screened for possible antiproliferative effects on three cell lines: SW 620 (colon carcinoma), MCF-7 (breast carcinoma) and HeLa (cervical carcinoma), according to the previously published procedure. Table 3 summarizes activities found for tested peptides, expressed as percentage of growth (PG) of three cell lines, together with values for OGF and three OGF-related peptides proposed by the SVM radial basis function kernel (RBF). […] Therefore, the approach presented here managed to select peptides with improved biological activities from virtual library.
(§2) The biological potential of prepared compounds has been tested in the Laboratory for experimental therapy (Ruđer Bošković Institute) following the previously published procedure. Briefly, MCF-7, SW 620 and HeLa cells were cultured as monolayers and maintained in Dulbecco’s modified Eagle medium (DMEM), supplemented with 10% fetal bovine serum (FBS), 2mM L-glutamine, 100 U/mL penicillin and 100 μg/mL streptomycin in a humidified atmosphere with 5% CO2 at 37 °C. The panel cell lines were inoculated onto a series of standard 96-well microtiter plates on day 0, at 1 × 10^4 to 3 × 10^4 cells/mL, depending on the doubling times of specific cell line. Test agents were then added in five, 10-fold dilutions (10^−8 to 10^−4 M) and incubated for a further 72 hours. Working dilutions were freshly prepared on the day of testing. The solvent was also tested for eventual inhibitory activity by adjusting its concentration to be the same as in working concentrations. After 72 hours of incubation the cell growth rate was evaluated by performing the MTT assay. For this purpose the substance treated medium was discarded and MTT was added to each well at a concentration of 20 μg/40 μL. After four hours of incubation the precipitates were dissolved in 160 μL of dimethylsulphoxide (DMSO). The absorbance that is directly proportional to the number of living, metabolically active cells was measured on a microplate reader at 570 nm. Each test point was performed in quadruplicate in three individual experiments.

MCF-7 (breast carcinoma) [5] = assay: Proliferation assay (MTT), MCF-7 cells; format: cell-based; details: c = 10^-4 M, 72 h incubation, absorbance 570 nm, quadruplicate in three individual experiments
From the text: as §1, §2

[6] = test system: HeLa (cervical carcinoma); assay: Proliferation assay (MTT), HeLa cells; format: cell-based; details: c = 10^-4 M, 72 h incubation, absorbance 570 nm, quadruplicate in three individual experiments
From the text: as §1, §2

[7] = Oxidation of Met residues to sulfoxide during acid Boc deprotection; format: physicochemical; details: cold TFA-H2O (9:1), ice bath, 5 min, full scan MS: only traces of 11 (m/z 750), oxidized forms m/z 766, 782, 798
Method: Synthesis of methionine rich peptides 10–14 was based on the 2 + 2 and 2 + 3 coupling between Boc-protected dipeptides 1–4 and H-Met-Met-OH or H-Met-Met-Met-OH (Scheme 1). Different methods of peptide bond formation were tested; finally peptides 5–7 were obtained by the DCC/HOSu method, activation with HATU yielded Ada-containing pentapeptide 8, while pentapeptide 9 was obtained by the mixed anhydride method (details in the Experimental section). Finally, deprotection of the Boc group was performed by acid hydrolysis and extra precautions were taken due to the known susceptibility of methionine residue toward acid-promoted oxidation to sulfoxide. Therefore, deprotection step was performed in ice bath, crude product was immediately purified by the HPLC and residual acid removed by passing through the short C18 column. […] During the purification procedure, only oxidized product 15 was isolated. All prepared compounds were characterized by NMR spectroscopy and deprotected compounds 10 and 12–15 additionally by tandem mass spectrometry and HRMS. The main feature of MS/MS spectra of the molecular [M + H]^+ ions of all peptides is high abundance of Y” and B-type fragment ions (Figure S1, Supplementary Information).
Boc-protected peptides 5–9 were treated with cold TFA-H2O (9:1) mixture in ice bath for 5 min. […]

Row | Substance | PG(%) SW620 (percentage of growth) (SW 620 (colon carcinoma) [1]; training set peptides) | PG(%) HeLa (percentage of growth) ([2]; training set peptides) | PG(%) MCF-7 (percentage of growth) (MCF-7 (breast carcinoma) [3]; training set peptides) | PG(%) SW620 (percentage of growth) (SW 620 (colon carcinoma) [4]) | PG(%) MCF-7 (percentage of growth) (MCF-7 (breast carcinoma) [5]) | PG(%) HeLa (percentage of growth) [6] | further results
1 | H-Tyr-Ada-Gly-Phe-Met-OH | 85% | 85% | 100% |  |  |  | 
2 | H-Tyr-(R)-Ada-Gly-OH | 87% | 89% | 100% |  |  |  | 
3 | H-Phe-Ala-Met-Met-OH [Compound 13] |  |  |  | 86% | 68% | 71% | 
4 | H-Tyr-Ada-Gly-Phe-Phe-OH |  |  |  |  |  |  | PG(%) SW620 (percentage of growth) (SW 620 (colon carcinoma) [1]): 38%; PG(%) HeLa (percentage of growth) [2]: 71%; PG(%) MCF-7 (percentage of growth) (MCF-7 (breast carcinoma) [3]): 81%
5 | H-Phe-Ada-Met(O)-Met(O)-Met(O)-OH [Compound 15] |  |  |  | 77% | 82% | 64% | 
6 | H-Tyr-(S)-Ada-Gly-OH | 85% | 90% | 100% |  |  |  | 
7 | H-Phe-Ala-Met-Met-Met-OH [Compound 10] |  |  |  | 100% | 74% | 88% | 
8 | H-Tyr-(R)-Ada-OH | 88% | 97% | 99% |  |  |  | 
9 | H-Tyr-Ala-Met-Met-Met-OH [Compound 14] |  |  |  | 97% | 71% | 91% | 
10 | H-Tyr-Gly-Gly-Phe-Met-OH [OGF, native opioid growth factor (OGF), Met-enkephalin] |  |  |  | 85% | 92% | 88% | 
11 | H-Tyr-(S)-Ada-OH | 72% | 92% | 100% |  |  |  | 
12 | H-Phe-Ada-Gly-Phe-Met-OH |  |  |  |  |  |  | PG(%) SW620 (percentage of growth) (SW 620 (colon carcinoma) [1]): 35%; PG(%) HeLa (percentage of growth) [2]: 49%; PG(%) MCF-7 (percentage of growth) (MCF-7 (breast carcinoma) [3]): 39%
13 | H-Phe-Ada-Met-Met-Met-OH [Compound 11, Ada-containing pentapeptide, only traces seen; oxidized to 15 during deprotection] |  |  |  |  |  |  | Susceptibility of Met residues to oxidation (sulfoxide formation) [7]: extreme susceptibility to oxidation
14 | H-Phe-Ada-Gly-Phe-Phe-OH |  |  |  |  |  |  | PG(%) SW620 (percentage of growth) (SW 620 (colon carcinoma) [1]): 39%; PG(%) HeLa (percentage of growth) [2]: 23%; PG(%) MCF-7 (percentage of growth) (MCF-7 (breast carcinoma) [3]): 41%
15 | H-Phe-Gly-Met-Met-Met-OH [Compound 12] |  |  |  | 95% | 86% | 86% | 
